Measurements reported in patent publication US11957671B2, “Benzodioxane modulators of leukotriene A4 hydrolase (LTA4H) for prevention and treatment of aging-associated diseases” (Alkahest, Inc., priority 2021, dated 2024).

What was measured:
mice = details: previous studies; cited from earlier work
aged C57BL/6 mice [1] = assay: Unbiased single cell RNA sequencing of brain tissue; type: in vivo, mouse; details: 2.5 mg/kg bid P.O. 1 month
Procedure: Aged C57BL/6 mice (21 months of age) were treated for 1 month bid P.O. with vehicle or 2.5 mg/kg SC57461A (n=3 mice per treatment group). One cortical cap (cortex and hippocampus) from each mouse was isolated and cells were dissociated and sorted using Sony Multi-Application Cell Sorter MA900. Unbiased RNA sequencing from single brain cells were analyzed according to techniques described previously (Yousf H, et al., Bio Protoc., 8(22):e3091 (2018), which is herein incorporated by reference in its entirety).

aged mice = assay: CA1 synapse density by histology; type: in vivo, mouse; details: preliminary data, pre- and post-synaptic protein staining
[2] = test system: brain endothelial cells of aged C57BL/6 mice; assay: Single cell RNA sequencing of brain endothelial cells (BECs); type: in vivo, mouse
Procedure: Male C57BL/6 mice aged 20-21 months were treated with Vehicle or SC-57461A commercially available LTA4H inhibitor. The mice were dosed with SC-57461A at 2.5 mg/kg PO bid for one month. Mice were anesthetized and blood and tissues were collected for further analysis. Blood was collected via cardiac puncture in syringes pre-filled with Heparin. Brains were collected following ACSF perfusion and processed for single cell RNA sequencing of labeled endothelial cells.
Brain endothelial cells (BECs) were sorted, sequenced, and analyzed based on techniques known to those having ordinary skill in the art. […] Gates were determined to separate CD31-positive, CD11b-negative endothelial cells from CD11b-positive, CD31-negative microglia. […]
Aged C57BL/6 mice (21 months of age) were treated for 1 month bid P.O. with vehicle, 1 mg/kg Compound 1, or 2.5 mg/kg SC57461A (n=3 mice per treatment group). Brain endothelial cells were sorted, sequenced and analyzed as described in Example 12 (See Chen M B, et al., Cell Rep, 30(13):4418-32e4 (2020) which is herein incorporated by reference in its entirety).
GO terms are generated using the g:Profiler Web server (https://bitt.cs.ut.ee/gprofiler) to analyze differential regulated gene lists. Reported are the top 20 gene ontology (GO terms) terms from the biological process category, sorted by significance as determined by P-value. […]

aged C57BL/6 mice [3] = assay: Long term potentiation (LTP) in hippocampal slices; type: in vivo, mouse; details: 1 month bid po, 1 mg/kg Compound 1 or 2.5 mg/kg SC57461A
Procedure: Aged C57BL/6 mice (21 months of age) were treated for 1 month bid po with vehicle, 1 mg/kg Compound 1, or 2.5 mg/kg SC57461A (n=5 mice per treatment group). Electrophysical recordings were performed at AfaSci, Inc, as follows. Animals were deeply anesthetized with halothane and decapitated. The brain was quickly taken out and placed into ice-cold artificial cerebrospinal fluid (ACSF) that was continuously bubbled with 5% CO2/95% O2. The ACSF was composed of (in mM) NaCl 130.0, KCl 2.5, KH2PO4 1.2, CaCl2 2.4, MgSO4 1.3, NaHCO326.0 and glucose 10.0 (pH 7.4). Hippocampal slices (400 μm thick) were prepared using a tissue slicer (Stoelting Co., IL) and incubated at room temperature in continuously oxygenated ACSF for at least 1 h before being recorded with submerged mode in chamber (Harvard Apparatus) at room temperature. Data were collected with an Axopatch-2B amplifier and pClamp 10.4 program (Axon Instruments) through digidata 1320A.
Field population spike (PS) was recorded using glass microelectrode filled with ACSF (resistance: 1-3 MO). Biphasic current pulses (0.2 ms duration for one phase, 0.4 ms in total) were delivered in 10 s intervals through a concentric bipolar stimulating electrode (FHC, Inc.). […] To record field population spikes in dorsal dentate gyrus, the stimulating electrode was placed on the hippocampal fissure to stimulate the bypassing perforant pathway fibers and the recording electrode was placed on inner part of granular cell layer. To record field EPSPs in DG, the stimulating electrode was placed on the hippocampal fissure to stimulate the bypassing perforant pathway fibers and the recording electrode was placed on inner part of granular cell layer. Slices were recorded within 8 hours after dissection. Titanic stimulation consisted of 2 trains of 100 pulses (0.4 ms bipolar pulse duration, 100 Hz) lasting for 1 second with 5 seconds of interval. The slope of EPSP and amplitude of population spike were measured from the initial phase of negative wave with Clampfit10.4. Each data point was measured with average of 3 consecutive traces. LTP was plotted as the percentage to baseline following high frequency stimulation (mean±SEM).

[4] = test system: hippocampal neurons of aged C57BL/6 mice; assay: Single cell RNA sequencing of NeuN+ hippocampal nuclei (CA1, DG); type: in vivo, mouse
Procedure: Aged C57BL/6 mice (21 months of age) were treated for 1 month bid po with vehicle, 1 mg/kg Compound 1, or 2.5 mg/kg SC57461A (n=3 mice per treatment group). NucSeq For Mouse Brain Tissue protocol from 10× Genomics was used to isolate mouse hippocampus nuclei. Approximately 65 mg of brain tissue were used per treatment. Nonidet P40 was used to lyse cell walls and isolated nuclei were stained with Draq5 and NeuN antibodies for FACS sorting. Approximately 5,000 nuclei were collected for each sample. Eight samples were collected for each treatment for a total of 40,000 nuclei per treatment. These samples were prepped for sequencing using the 10× Genomics Chromium Next GEM kit.
GO terms are generated using the g:Profiler Web server (https://bitt.cs.ut.ee/gprofiler) to analyze differential regulated gene lists. Reported are the top 20 gene ontology (GO terms) terms from the biological process category, sorted by significance as determined by P-value. This list was filtered to report significant GO terms that include less than 1000 genes.

[5] = test system: purified endothelial cells from the brains of aged C57BL/6 mice; assay: Microbulk qPCR of endothelial genes; type: in vivo, mouse; details: 1 month bid P.O., 1 mg/kg Compound 1 or 2.5 mg/kg SC57461A
Procedure: (§1) Downregulation of the detrimental genes Bsg, Gbp4, and CXCL12 in purified endothelial cells from the brains of mice treated with LTA4H inhibitors Compound 1 or SC57461A were compared to those of vehicle treated mice. Gene expression was measured by qPCR from 500 sorted endothelial cells and was normalized to GAPDH control.
Aged C57BL/6 mice (21 months of age) were treated for 1 month bid P.O. with vehicle, 1 mg/kg Compound 1, or 2.5 mg/kg SC57461A (n=3 mice per treatment group). One cortical cap (cortex and hippocampus) from each mouse was isolated and cells were dissociated using Miltenyi Neutral Dissociation Kit (#130-092-628). Cells were sorted using Sony Multi-Application Cell Sorter MA900 into clean, RNAase free 200 uL PCR strip tube with 5 uL RNAlater at a concentration of 500 cells per tube. RNA was isolated follow kit protocol for Qiagen RNeasy Micro Kit (#74004). cDNA was synthesized using SuperScript III Kit Protocol and qPCR assays were run using TaqMan or SYBR green primers.
as §1, with “beneficial gene, Plat,” for “detrimental genes Bsg, Gbp4, and CXCL12”

[6] = 1 month bid po, 1 mg/kg Compound 1 or 2.5 mg/kg SC57461A

In the case of CN(CCCOc1ccc(Cc2ccccc2)cc1)CCC(=O)O.Cl [SC-57461A, reference compound], the memory domains improved (mice) is given as “only improved spatial memory”, the “Biological Process GO terms, astrocytes” value (aged C57BL/6 mice [1]) is given as “changes to astrocytes” and the “Biological Process GO terms, endothelial” value (aged C57BL/6 mice [1]) is given as “changes to endothelial”. The “Biological Process GO terms, pericytes” value (aged C57BL/6 mice [1]) was “changes to pericyte”, the astrocyte gene changes (aged C57BL/6 mice [1]) was “many significant gene changes to astrocytes” and the “endothelial cell gene changes” value (aged C57BL/6 mice [1]) was “many significant gene changes to brain endothelial cells”. For the same compound, the pericyte gene changes (aged C57BL/6 mice [1]) was “many significant gene changes to pericytes”, the “synapse density in the CA1 region of the hippocampus” value (aged mice) was “no trend in increased CA1 synapse density” and the “Biological Process GO terms, BECs” value ([2]; 2.5 mg/kg PO bid one month) was “changes to the endothelial milieu”. For the same compound, the “endothelial cell gene changes, enriched brain endothelial cells” value ([2]; 2.5 mg/kg bid P.O. 1 month) was “many significant gene changes to brain endothelial cells”, the “LTP, CA1 region of the hippocampus” value (aged C57BL/6 mice [3]) was “did not show the same LTP increase” and the “LTP, DG region of the hippocampus” value (aged C57BL/6 mice [3]) was “did not show the same LTP increase”. For the same compound, the “CA1 neuronal gene changes” value [4, 6] was “many significant gene changes to neurons in the CA1 region of the hippocampus”, the “DG neuronal gene changes” value [4, 6] was “many significant gene changes to neurons in the DG region of the hippocampus” and the “Dcc gene expression in the dentate gyrus” value [4, 6] was “not significantly impacted”. For the same compound, the “Spock3 gene expression in the dentate gyrus” value [4, 6] was “not significantly impacted”, the “Biological Process GO terms, CA1 hippocampal neurons” value ([4]; long-term treatment) was “changes to synapses” and the “Biological Process GO terms, DG hippocampal neurons” value ([4]; long-term treatment) was “changes to synapses”. For the same compound, the Bsg gene expression [5] was “down regulation of Bsg gene expression”, the CXCL12 gene expression [5] was “down regulation of CXCL12 gene expression” and the Gpb4 gene expression [5] was “down regulation of Gpb4 gene expression”. The Plat gene expression [5] was “up regulation of Plat gene expression”.
